The supplement of paper PMC10883282

Legend:
Assay in all cases: relative viability vs DMSO control (72 h) (fraction); higher = more viable cells
MES-SA = test system: MES-SA
In short: (§1)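 Serially diluted compound, 2.5 µl from source plates spanning 10 mM to 0.0002 mM, was added 24 h after sarcoma cell lines were seeded in 384-well plates at densities targeting 80–90% confluence. Plates then sat 72 h at 37 °C, 5% CO2, with 0.1% DMSO vehicle and a 5 µM positive control. Relative viability came from ATPLite as percent growth, averaged over up to triplicate wells, and was rescaled with 1 as full and 0 as none.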

SK-LMS-1 = test system: SK-LMS-1
In short: as §1

SK-ES-1 = test system: SK-ES-1
In short: as §1

SYO-1 = test system: SYO-1
In short: as §1

SW1353 = test system: SW1353
In short: as §1

RD-ES = test system: RD-ES
In short: as §1

VA-ES-BJ = test system: VA-ES-BJ
In short: as §1

HT1080 = test system: HT1080
In short: as §1

RD = test system: RD
In short: as §1

KHOS-240S = test system: KHOS-240S
In short: as §1

SW982 = test system: SW982
In short: as §1

G401 = test system: G401
In short: as §1

N#CCC1(n2cc(-c3ncnc4[nH]ccc34)cn2)CN(C2CCN(C(=O)c3ccnc(C(F)(F)F)c3F)CC2)C1 [Itacitinib]
Settings	relative viability
G401, 0.00017 µM	0.99
G401, 0.00051 µM	0.967
G401, 0.00152 µM	0.921
G401, 0.00457 µM	0.912
G401, 0.01372 µM	0.962
G401, 0.04115 µM	0.929
G401, 0.1235 µM	0.902
G401, 0.3704 µM	0.953
G401, 1.111 µM	0.931
G401, 3.333 µM	0.913
G401, 10 µM	0.862
HT1080, 0.00017 µM	1.04
HT1080, 0.00051 µM	1.02
HT1080, 0.00152 µM	1.04
HT1080, 0.00457 µM	1.01
HT1080, 0.01372 µM	1.03
HT1080, 0.04115 µM	0.991
HT1080, 0.1235 µM	1.03
HT1080, 0.3704 µM	1.004
HT1080, 1.111 µM	0.993
HT1080, 3.333 µM	1.02
HT1080, 10 µM	1
KHOS-240S, 0.00017 µM	1.05
KHOS-240S, 0.00051 µM	1.04
KHOS-240S, 0.00152 µM	1.04
KHOS-240S, 0.00457 µM	1.06
KHOS-240S, 0.01372 µM	1.02
KHOS-240S, 0.04115 µM	1.01
KHOS-240S, 0.1235 µM	0.984
KHOS-240S, 0.3704 µM	0.999
KHOS-240S, 1.111 µM	0.97
KHOS-240S, 3.333 µM	0.95
KHOS-240S, 10 µM	0.923
MES-SA, 0.00017 µM	0.921
MES-SA, 0.00051 µM	0.934
MES-SA, 0.00152 µM	0.919
MES-SA, 0.00457 µM	0.908
MES-SA, 0.01372 µM	0.922
MES-SA, 0.04115 µM	0.894
MES-SA, 0.1235 µM	0.909
MES-SA, 0.3704 µM	0.886
MES-SA, 1.111 µM	0.898
MES-SA, 3.333 µM	0.864
MES-SA, 10 µM	0.827
RD, 0.00017 µM	1.01
RD, 0.00051 µM	1.02
RD, 0.00152 µM	1.02
RD, 0.00457 µM	1.07
RD, 0.01372 µM	1.08
RD, 0.04115 µM	1.05
RD, 0.1235 µM	1.05
RD, 0.3704 µM	1.03
RD, 1.111 µM	1.04
RD, 3.333 µM	1.04
RD, 10 µM	1.06
RD-ES, 0.00017 µM	0.92
RD-ES, 0.00051 µM	0.949
RD-ES, 0.00152 µM	0.919
RD-ES, 0.00457 µM	0.956
RD-ES, 0.01372 µM	0.927
RD-ES, 0.04115 µM	0.913
RD-ES, 0.1235 µM	0.909
RD-ES, 0.3704 µM	0.909
RD-ES, 1.111 µM	0.924
RD-ES, 3.333 µM	0.887
RD-ES, 10 µM	0.853
SK-ES-1, 0.00017 µM	1.04
SK-ES-1, 0.00051 µM	0.996
SK-ES-1, 0.00152 µM	0.977
SK-ES-1, 0.00457 µM	1.05
SK-ES-1, 0.01372 µM	0.979
SK-ES-1, 0.04115 µM	0.976
SK-ES-1, 0.1235 µM	1.01
SK-ES-1, 0.3704 µM	0.964
SK-ES-1, 1.111 µM	0.972
SK-ES-1, 3.333 µM	0.884
SK-ES-1, 10 µM	0.855
SK-LMS-1, 0.00017 µM	1.03
SK-LMS-1, 0.00051 µM	1.02
SK-LMS-1, 0.00152 µM	0.994
SK-LMS-1, 0.00457 µM	0.976
SK-LMS-1, 0.01372 µM	0.987
SK-LMS-1, 0.04115 µM	0.997
SK-LMS-1, 0.1235 µM	0.958
SK-LMS-1, 0.3704 µM	0.954
SK-LMS-1, 1.111 µM	0.969
SK-LMS-1, 3.333 µM	0.913
SK-LMS-1, 10 µM	0.883
SW982, 0.00017 µM	0.979
SW982, 0.00051 µM	0.996
SW982, 0.00152 µM	1.01
SW982, 0.00457 µM	1
SW982, 0.01372 µM	1.02
SW982, 0.04115 µM	0.974
SW982, 0.1235 µM	0.976
SW982, 0.3704 µM	0.956
SW982, 1.111 µM	0.983
SW982, 3.333 µM	0.93
SW982, 10 µM	0.928
SW1353, 0.00017 µM	0.987
SW1353, 0.00051 µM	1
SW1353, 0.00152 µM	0.982
SW1353, 0.00457 µM	0.937
SW1353, 0.01372 µM	0.96
SW1353, 0.04115 µM	0.939
SW1353, 0.1235 µM	0.955
SW1353, 0.3704 µM	0.937
SW1353, 1.111 µM	0.933
SW1353, 3.333 µM	0.929
SW1353, 10 µM	0.87
SYO-1, 0.00017 µM	0.969
SYO-1, 0.00051 µM	0.921
SYO-1, 0.00152 µM	0.927
SYO-1, 0.00457 µM	0.91
SYO-1, 0.01372 µM	0.859
SYO-1, 0.04115 µM	0.825
SYO-1, 0.1235 µM	0.802
SYO-1, 0.3704 µM	0.792
SYO-1, 1.111 µM	0.752
SYO-1, 3.333 µM	0.72
SYO-1, 10 µM	0.698
VA-ES-BJ, 0.00017 µM	1.05
VA-ES-BJ, 0.00051 µM	1.03
VA-ES-BJ, 0.00152 µM	1.02
VA-ES-BJ, 0.00457 µM	1.02
VA-ES-BJ, 0.01372 µM	1.01
VA-ES-BJ, 0.04115 µM	1
VA-ES-BJ, 0.1235 µM	0.982
VA-ES-BJ, 0.3704 µM	0.97
VA-ES-BJ, 1.111 µM	0.972
VA-ES-BJ, 3.333 µM	0.942
VA-ES-BJ, 10 µM	0.859

N#Cc1ccnc(N2C(=O)CC[C@H]2C(=O)N(c2cncc(F)c2)[C@H](C(=O)NC2CC(F)(F)C2)c2ccccc2Cl)c1 [Ivosidenib]
Settings	relative viability
G401, 0.00017 µM	0.926
G401, 0.00051 µM	0.927
G401, 0.00152 µM	0.971
G401, 0.00457 µM	1.01
G401, 0.01372 µM	0.952
G401, 0.04115 µM	0.934
G401, 0.1235 µM	0.99
G401, 0.3704 µM	0.943
G401, 1.111 µM	0.958
G401, 3.333 µM	0.929
G401, 10 µM	0.896
HT1080, 0.00017 µM	0.987
HT1080, 0.00051 µM	1.07
HT1080, 0.00152 µM	1.03
HT1080, 0.00457 µM	1.0513
HT1080, 0.01372 µM	1.09
HT1080, 0.04115 µM	1.07
HT1080, 0.1235 µM	1.11
HT1080, 0.3704 µM	1.106
HT1080, 1.111 µM	1.1
HT1080, 3.333 µM	1.09
HT1080, 10 µM	1.05
KHOS-240S, 0.00017 µM	1.03
KHOS-240S, 0.00051 µM	1.04
KHOS-240S, 0.00152 µM	1.04
KHOS-240S, 0.00457 µM	1.057
KHOS-240S, 0.01372 µM	1.04
KHOS-240S, 0.04115 µM	1.046
KHOS-240S, 0.1235 µM	1.02
KHOS-240S, 0.3704 µM	1.03
KHOS-240S, 1.111 µM	1.02
KHOS-240S, 3.333 µM	1.022
KHOS-240S, 10 µM	0.998
MES-SA, 0.00017 µM	0.905
MES-SA, 0.00051 µM	0.943
MES-SA, 0.00152 µM	0.932
MES-SA, 0.00457 µM	0.935
MES-SA, 0.01372 µM	0.938
MES-SA, 0.04115 µM	0.929
MES-SA, 0.1235 µM	0.933
MES-SA, 0.3704 µM	0.981
MES-SA, 1.111 µM	0.976
MES-SA, 3.333 µM	0.925
MES-SA, 10 µM	0.8939
RD, 0.00017 µM	1.04
RD, 0.00051 µM	1.02
RD, 0.00152 µM	1.03
RD, 0.00457 µM	1.05
RD, 0.01372 µM	1.05
RD, 0.04115 µM	1.06
RD, 0.1235 µM	1.07
RD, 0.3704 µM	1.03
RD, 1.111 µM	1.04
RD, 3.333 µM	1.02
RD, 10 µM	0.944
RD-ES, 0.00017 µM	0.948
RD-ES, 0.00051 µM	0.976
RD-ES, 0.00152 µM	1
RD-ES, 0.00457 µM	0.977
RD-ES, 0.01372 µM	0.996
RD-ES, 0.04115 µM	0.986
RD-ES, 0.1235 µM	1
RD-ES, 0.3704 µM	1.02
RD-ES, 1.111 µM	0.986
RD-ES, 3.333 µM	0.973
RD-ES, 10 µM	0.9403
SK-ES-1, 0.00017 µM	0.941
SK-ES-1, 0.00051 µM	0.962
SK-ES-1, 0.00152 µM	0.984
SK-ES-1, 0.00457 µM	1.02
SK-ES-1, 0.01372 µM	0.988
SK-ES-1, 0.04115 µM	1.01
SK-ES-1, 0.1235 µM	1
SK-ES-1, 0.3704 µM	0.965
SK-ES-1, 1.111 µM	1
SK-ES-1, 3.333 µM	0.978
SK-ES-1, 10 µM	0.983
SK-LMS-1, 0.00017 µM	1.01
SK-LMS-1, 0.00051 µM	1.01
SK-LMS-1, 0.00152 µM	1.033
SK-LMS-1, 0.00457 µM	1.04
SK-LMS-1, 0.01372 µM	1.04
SK-LMS-1, 0.04115 µM	1.02
SK-LMS-1, 0.1235 µM	1.03
SK-LMS-1, 0.3704 µM	0.968
SK-LMS-1, 1.111 µM	0.997
SK-LMS-1, 3.333 µM	0.968
SK-LMS-1, 10 µM	0.954
SW982, 0.00017 µM	1.02
SW982, 0.00051 µM	0.981
SW982, 0.00152 µM	0.987
SW982, 0.00457 µM	1
SW982, 0.01372 µM	0.996
SW982, 0.04115 µM	1.01
SW982, 0.1235 µM	0.984
SW982, 0.3704 µM	0.966
SW982, 1.111 µM	0.975
SW982, 3.333 µM	0.982
SW982, 10 µM	0.971
SW1353, 0.00017 µM	0.966
SW1353, 0.00051 µM	0.94
SW1353, 0.00152 µM	0.976
SW1353, 0.00457 µM	0.935
SW1353, 0.01372 µM	0.976
SW1353, 0.04115 µM	0.972
SW1353, 0.1235 µM	0.949
SW1353, 0.3704 µM	0.98
SW1353, 1.111 µM	0.929
SW1353, 3.333 µM	0.973
SW1353, 10 µM	0.972
SYO-1, 0.00017 µM	1.03
SYO-1, 0.00051 µM	1.01
SYO-1, 0.00152 µM	1.07
SYO-1, 0.00457 µM	1.02
SYO-1, 0.01372 µM	1.01
SYO-1, 0.04115 µM	1.01
SYO-1, 0.1235 µM	1.02
SYO-1, 0.3704 µM	1.01
SYO-1, 1.111 µM	1.02
SYO-1, 3.333 µM	1.01
SYO-1, 10 µM	1
VA-ES-BJ, 0.00017 µM	1.03
VA-ES-BJ, 0.00051 µM	1.02
VA-ES-BJ, 0.00152 µM	1
VA-ES-BJ, 0.00457 µM	1.03
VA-ES-BJ, 0.01372 µM	1.04
VA-ES-BJ, 0.04115 µM	1.02
VA-ES-BJ, 0.1235 µM	1.043
VA-ES-BJ, 0.3704 µM	1.003
VA-ES-BJ, 1.111 µM	1.01
VA-ES-BJ, 3.333 µM	1.03
VA-ES-BJ, 10 µM	0.988
